Reference: PMC8092876, “A Leucyl-tRNA Synthetase Inhibitor with Broad-Spectrum Antimycobacterial Activity” (Antimicrobial Agents and Chemotherapy, 2021)
In brackets after ≈: the same amount, converted by molar mass.

How the values were obtained:
[1] = system: M. abscessus subsp. abscessus ATCC 19977; assay: MIC assay in 96-well plate format; type: cell-based; details: Mycobacteroides abscessus, ATCC19977; M. abscessus subsp. abscessus ATCC 19977, culture collection reference strain
[2] = system: M. abscessus subsp. bolletii M232; assay: MIC assay in 96-well plate format; type: cell-based; details: Mycobacteroides abscessus; M. abscessus subsp. bolletii M232, clinical isolate
[3] = system: M. abscessus Bamboo RM2 (LeuS K502E); assay: microbe, parasite or virus in culture; type: cell-based; details: Mycobacteroides abscessus
ChromlogD assay = type: physicochemical; details: reversed phase HPLC column (Gemini NX C18), pH 7.4
Experimental: The Chromatographic Hydrophobicity Index (CHI) values are measured using reversed phase high-performance liquid chromatography (HPLC) column (50 by 2 mm […] Gemini NX C18, Phenomenex, UK) with fast acetonitrile gradient at starting mobile phase of pHs 2, 7.4, and 10.5. CHI values are derived directly from the gradient retention times by using a calibration line obtained for standard compounds. The CHI value approximates to the volume percent organic concentration when the compound elutes. CHI is linearly transformed into ChromlogD by least-square fitting of experimental CHI values to calculated ClogP values for over 20,000 research compounds using the following formula: ChromlogD = (0.0857 × CHI) − 2.00. The average error of the assay is ±3 CHI unit or ±0.25 ChromlogD.

[4] = system: M. intracellulare ATCC 13950; assay: MIC assay in 96-well plate format; type: cell-based; details: Mycobacterium intracellulare, ATCC13950; M. intracellulare ATCC 13950, culture collection reference strain

**Q.** With `CC(C)(O)COc1ccc(Br)c2c1B(O)O[C@@H]2CN` [EC/11770] as the compound, how does the MIC [1] read?
**A.** 0.7 µM (≈ 0.231 µg/mL)

**Q.** And the MIC [2]?
**A.** 0.67 µM (≈ 0.221 µg/mL)

**Q.** What about the MIC [3] of the same compound?
**A.** > 100 µM

**Q.** What about the chromatographic logD (ChromlogD assay) of the same compound?
**A.** 0.97

**Q.** What about the MIC [4] of the same compound?
**A.** 0.37 µM (≈ 0.122 µg/mL)
